Experiments:
Assay type in all cases: in vivo
Settings in all cases: Triadimenol 30 GA/100 Kg
Pythium [1] = assay: Corn field trial, Pythium-infected seeds, seed treatment, soil not inoculated (Example 1); set-up: Density: unit not given here
Source text: Unlike other experiments disclosed herein, the soil for the experiment of EXAMPLE 1 was not inoculated with Pythium. Uninfected untreated, and Pythium-infected untreated seeds served as controls. Triadimenol, 15% w/v, is a systemic broad-spectrum fungicide used for cereal seed treatment, but has no activity against Pythium spp. Metalaxyl, 28.35% w/v, provides systemic protection for the seed, roots, and emerging plants against Pythium, systemic downy mildew, and Phytophthora. For corn, the industry standard dosage of metalaxyl is 2 grams of active ingredient per 100 kilograms of seed (2 GA/100 Kg). Saponin, 49.65% v/v extract of Chenopodium quinoa saponins, contained approximately equimolar amounts of triterpene bidesmosidic glycosides of oleanolic acid, hederagenin, and phytolaccagenic acid. […] In TABLE 1, “Vigor” represents a subjective measure of plant health and is based on uniformity, consistent plant mass, and consistent plant spacing, with lower scores being more favorable than higher scores. The data of TABLE 1 are shown graphically in FIGS. 1A and 1B. As shown by TABLE 1 and FIGS. 1A and 1B, the count and the density increased—over time—for all treatment conditions. The relative density, however, decreased over time for the […] and metalaxyl (2 GA/100 kg) categories. The relative density remained the same for the untreated/uninfected category because it provided the reference point (i.e., the relative densities were calculated with reference to the untreated/uninfected category).

Pythium [2] = assay: Cucumber field trial, Pythium-infected seeds, seed treatment, control or Pythium-inoculated soil (Example 3); set-up: Density: unit not given here
Source text: The seeds were planted in a field, either in soil that had been inoculated with Pythium (Soil Inoc. with Pythium), or in soil that had not been inoculated with Pythium (Ctrl.), then allowed to grow. Concentrations and compositions of triadimenol, metalaxyl, and saponin are the same as given in Example 1. For cucumber, the industry standard dosage of metalaxyl is 15.5 grams of active ingredient per 100 kilograms of seed (15.5 GA/100 Kg). […] The data of TABLE 3 are shown graphically in FIG. 3. The relative densities for the data of TABLE 3 and FIG. 3 were calculated with reference to the 31 GA/100 Kg metalaxyl category. As shown by TABLE 3 and FIG. 3, inoculation of the soil with Pythium was correlated with a general decrease in cucumber seedling count, density, and relative density (compare Ctrl. versus Inoc.).

Pythium [3] = assay: Corn hybrids greenhouse trial, Pythium-infected seeds, seed treatment (Example 4)
Source text: Concentrations and compositions of triadimenol, metalaxyl, and saponin are the same as given in Example 1. The data of TABLE 4 are shown graphically in FIGS. 4A and 4B. As shown by TABLE 4 and FIGS. 4A and 4B, pre-treatment of both varieties of corn seeds with 1 GA/100 Kg metalaxyl and 0.6 GA/100 Kg yielded counts similar to those achieved from pre-treatment of seeds with either 2 GA/100 Kg metalaxyl (the industry standard dose for corn) or 7.5 GA/100 Kg metalaxyl.

Pythium [4] = assay: Cotton field trial, Pythium-infected seeds, seed treatment, control or Pythium-inoculated soil (Example 2)
Source text: The seeds were planted in a field, either in soil that had been inoculated with Pythium (Soil Inoc. with Pythium), or in soil that had not been inoculated with Pythium (Ctrl.), then allowed to grow. Concentrations and compositions of triadimenol, metalaxyl, and saponin are the same as given in Example 1. For cotton, the industry standard dosage of metalaxyl is 15.5 grams of active ingredient per 100 kilograms of seed (15.5 GA/100 Kg). […] The data of TABLE 2 are shown graphically in FIG. 2. The relative densities for the data of TABLE 2 and FIG. 2 were calculated with reference to the 15.5 GA/100 Kg metalaxyl category. As shown by TABLE 2 and FIG. 2, inoculation of the soil with Pythium was correlated with a general decrease in cotton seedling count and density (compare Ctrl. versus Inoc.).

[5] = 18 DAA, Soil Inoc. with Pythium
[6] = 33 DAA, Soil Inoc. with Pythium
[7] = 34 DAA, Soil Inoc. with Pythium
[8] = 46 DAA, Soil Inoc. with Pythium

With `CC(C)(C)C(O)C(Oc1ccc(Cl)cc1)n1cncn1` (stereo not shown) [Triadimenol] the Count (Pythium [1]; 30 DAA) was 21, the Density (Pythium [1]; 30 DAA) was 25.9 and the “Relative Density” value (Pythium [1]; 30 DAA) was 69.2. For the same molecule, the Count (Pythium [1]; 46 DAA) was 60, the Density (Pythium [1]; 46 DAA) was 74.4 and the “Relative Density” value (Pythium [1]; 46 DAA) was 96.4. It also gave a Vigor (Pythium [1]; 46 DAA, subjective score, lower more favorable) of 4.50, a Count (Pythium [2]; 18 DAA, Ctrl. soil) of 28 and a Density (Pythium [2]; 18 DAA, Ctrl. soil) of 56. For the same molecule, the “Relative Density” value (Pythium [2]; 18 DAA, Ctrl. soil) was 80, the Count (Pythium [2]; [5]) was 10 and the Density (Pythium [2]; [5]) was 20. For the same molecule, the “Relative Density” value (Pythium [2]; [5]) was 34.5, the Count (Pythium [2]; 33 DAA, Ctrl. soil) was 28.3 and the Density (Pythium [2]; 33 DAA, Ctrl. soil) was 56.5. The “Relative Density” value (Pythium [2]; 33 DAA, Ctrl. soil) was 83.1, the Count (Pythium [2]; [6]) was 4.3 and the Density (Pythium [2]; [6]) was 8.5. The “Relative Density” value (Pythium [2]; [6]) was 16.2, the “Count, Hybrid A” value (Pythium [3]; Day 2) was 62 and the “Count, Hybrid B” value (Pythium [3]; Day 2) was 24. For the same molecule, the “Count, Hybrid A” value (Pythium [3]; Day 7) was 72, the “Count, Hybrid B” value (Pythium [3]; Day 7) was 40 and the “Count, Hybrid A” value (Pythium [3]; Day 14) was 74. For the same molecule, the “Count, Hybrid B” value (Pythium [3]; Day 14) was 40, the Count (Pythium [4]; 34 DAA, Ctrl. soil) was 39.5 and the Density (Pythium [4]; 34 DAA, Ctrl. soil) was 79. For the same molecule, the “Relative Density” value (Pythium [4]; 34 DAA, Ctrl. soil) was 106.8, the Count (Pythium [4]; [7]) was 18.3 and the Density (Pythium [4]; [7]) was 36.5. For the same molecule, the “Relative Density” value (Pythium [4]; [7]) was 73, the Count (Pythium [4]; 46 DAA, Ctrl. soil) was 40.3 and the Density (Pythium [4]; 46 DAA, Ctrl. soil) was 80.5. For the same molecule, the “Relative Density” value (Pythium [4]; 46 DAA, Ctrl. soil) was 107.3, the Count (Pythium [4]; [8]) was 17.5 and the Density (Pythium [4]; [8]) was 35. The “Relative Density” value (Pythium [4]; [8]) was 71.4.

— patent publication US20120077673A1, “Fungicidal Compositions and Methods of Use” (priority 2010, published 2012)
